The subject of data set [1] is TA 1535. The note with it: TA1535; azide levels 0.08, 0.2, 0.66, 2.0 and 6 ug; 1.5 hours at 37° C. then 18 hrs selective enrichment; no heteroduplex in vehicle control.
Experimental: Reactions were performed in sterile 1.5 ml microfuge tubes. Each tube contained: In a first stage incubation, 1 ul of overnight culture of TA 1535; 6.5 ul LB; 15 ul H2O (or S9); 67.5 ul M9 (−histidine+biotin). These four components are added from a master mix to the microfuge tubes. […] The mixture was incubated 1.5 hours at 37° C. The lids of the tubes were closed, but ventilated by piercing with a needle, for aeration. In a second stage incubation, 800 ul of Selective Enrichment Media was added, and the mixture is incubated for 18 hrs without shaking.
Selective Enrichment Media was prepared in a final volume of 900 ml as follows:
The media was autoclaved and cooled to room temperature. 90 ml of autoclaved 20% glucose was added. Prior to use, Biotin (Sigma) was added from a 400× stock (1.25M) to a final concentration of 1×.
A 1 ul aliquot was used in a “Hot start” PCR amplification with a final denaturation/renaturation step followed by analysis by DHPLC. Each dose was processed in quadruplicate.
For TA1535, the following 342 bp amplicon from the hisG gene was prepared:
In the PCR, the forward primer was [sequence] (SEQ ID NO: 2) and the reverse primer was [sequence] (SEQ ID NO: 3). The DNA polymerase was Optimase™ polymerase. The PCR conditions were as follows: […]
Data set [2] deals with TA 1535. To be noted: TA1535, 1.5-hour exposure, plates incubated 2 days at 37° C., two columns of counts.
Experimental: For comparative purposes, Ames modified plate assay were performed. […] After the 1.5-hour exposure, the incubation was add to 2 ml of melted top agar, containing limited histidine and biotin, equilibrated to 50° C. (MOLTOX catalog no. 26-503) and plated on minimal plates lacking histidine (MOLTOX catalog no.21-400). The plates were incubated 2 days at 37° C. and revertant colonies counted as shown:

Each structure is given as a SMILES string. Several values for one entry are separate records, joined by “and”; a condition that tells them apart may be missing. Equal values may be shown once. Read-outs that look alike come from different tables or passages of the source.

Consider `[N-]=[N+]=[N-]` [sodium azide], for which, in the data set on TA 1535 [1], the “DNA back-mutation at the hot spot (heteroduplex by DHPLC)” value is “caused DNA back-mutation at the hot spot”. In addition, the no. revertant colonies in the data set on TA 1535 [2] (NaN3 exposure amount 0.08 ug) was 3 and 5; with TA 1535 [2] (NaN3 exposure amount 0.2 ug), 13; in the data set with TA 1535 [2] (NaN3 exposure amount 0.6 ug), 15 and 27; with TA 1535 [2] (NaN3 exposure amount 2 ug), 39 and 66; in the data set on TA 1535 [2] (NaN3 exposure amount 6 ug), above 100.

The record behind these values is US20030211457A1, “Methods and kits for testing mutagenicity” (Transgenomic, Inc., priority 2002, published 2003).
